Here are results for two compounds from ChEMBL document CHEMBL3865829 (Eur J Med Chem, 2016).

In brackets after ≈: the same amount, converted by molar mass.

Data set [1] can be described thus: Antitumor activity against human A549 cells xenografted in BALB/c nude mouse assessed as tumor volume at 3 mg/kg, ig administered via oral gavage once daily for 9 consecutive days followed by subsequent dosing on day 13 and 14 measured on day 11 (reference value: 1327.66 +/- 404.92 mm3). Format: functional. On the technique in general: Xenograft models place foreign cells or tissue in a host animal.

The subject of data set [2] is Mus musculus. In words: Toxicity in nude BALB/c mouse xenografted with human A549 cells assessed as body weight at 3 mg/kg, ig administered via oral gavage once daily for 9 consecutive days followed by subsequent dosing on day 13 and 14 measured on day 15 (reference value: 27.12 +/- 1.43 g). It counts as organism-based. The settings on record: in vivo.
Data set [3] can be described thus: Aqueous solubility of the compound in pH 1 simulated gastric fluid. It counts as ADME.
Data set [4] concerns Mus musculus. In words: Toxicity in nude BALB/c mouse xenografted with human A549 cells assessed as body weight at 3 mg/kg, ig administered via oral gavage once daily for 9 consecutive days followed by subsequent dosing on day 13 and 14 measured on day 11 (reference value: 26.11 +/- 1.06 g). The settings on record: in vivo. It counts as organism-based.
Data set [5] in a line: Antitumor activity against human A549 cells xenografted in BALB/c nude mouse assessed as tumor volume at 3 mg/kg, ig administered via oral gavage once daily for 9 consecutive days followed by subsequent dosing on day 13 and 14 measured on day 4 (reference value: 419.55 +/- 104.72 mm3). Format: functional.
Data set [6] can be described thus: Cytotoxicity against human U87MG cells after 72 hrs by MTT assay. Format: functional, cell-based, U-87MG ATCC. The note with it: U-87 MG.
Data set [7] in a line: Antitumor activity against human A549 cells xenografted in BALB/c nude mouse assessed as tumor volume at 3 mg/kg, ig administered via oral gavage once daily for 9 consecutive days followed by subsequent dosing on day 13 and 14 measured on day 18 (reference value: 3045.91 +/- 854.27 mm3). It counts as functional.
Data set [8] can be described thus: Antitumor activity against human A549 cells xenografted in BALB/c nude mouse assessed as tumor volume at 3 mg/kg, ig administered via oral gavage once daily for 9 consecutive days followed by subsequent dosing on day 13 and 14 measured on day 8 (reference value: 840.07 +/- 205.19 mm3). It counts as functional.
The nature of data set [9]: Cytotoxicity against human A549 cells after 72 hrs by MTT assay. The note with it: A549, 72 h. Format: functional, cell-based. (Tetrazolium dyes change colour on reduction, which living cells bring about.)
Data set [10] concerns Mus musculus. In words: Toxicity in nude BALB/c mouse xenografted with human A549 cells assessed as body weight at 3 mg/kg, ig administered via oral gavage once daily for 9 consecutive days followed by subsequent dosing on day 13 and 14 measured on day 4 (reference value: 24.77 +/- 0.93 g). Format: organism-based. The settings on record: in vivo.
Data set [11] deals with Mus musculus. In words: Toxicity in nude BALB/c mouse xenografted with human A549 cells assessed as body weight at 3 mg/kg, ig administered via oral gavage once daily for 9 consecutive days followed by subsequent dosing on day 13 and 14 measured on day 18 (reference value: 27.75 +/- 1.41 g). It counts as organism-based. The settings on record: in vivo.
For data set [12], the system named is Mus musculus. In words: Toxicity in nude BALB/c mouse xenografted with human A549 cells assessed as body weight at 3 mg/kg, ig administered via oral gavage once daily for 9 consecutive days followed by subsequent dosing on day 13 and 14 measured on day 1 (reference value: 24.38 +/- 0.76 g). It counts as organism-based. The settings on record: in vivo.
The nature of the next data set: cells. The settings on record: Homo sapiens, HCT-116, 72 h.
For data set [13], the system named is Mus musculus. Put plainly: Toxicity in nude BALB/c mouse xenografted with human A549 cells assessed as body weight at 3 mg/kg, ig administered via oral gavage once daily for 9 consecutive days followed by subsequent dosing on day 13 and 14 measured on day 8 (reference value: 25.66 +/- 1.04 g). The note with it: in vivo. It counts as organism-based.
Data set [14] is described as follows: Antitumor activity against human A549 cells xenografted in BALB/c nude mouse assessed as tumor volume at 3 mg/kg, ig administered via oral gavage once daily for 9 consecutive days followed by subsequent dosing on day 13 and 14 measured on day 15 (reference value: 2071.51 +/- 682.84 mm3). Format: functional.
Data set [15] is described as follows: Antitumor activity against human A549 cells xenografted in BALB/c nude mouse assessed as tumor growth inhibition at 3 mg/kg, ig administered via oral gavage once daily for 9 consecutive days followed by subsequent dosing on days 13 and 14 measured on day 30 relative to control. Format: functional. The note with it: 720 h, read-out: TGI.
A short description of data set [16]: Antitumor activity against human A549 cells xenografted in BALB/c nude mouse assessed as tumor volume at 3 mg/kg, ig administered via oral gavage once daily for 9 consecutive days followed by subsequent dosing on day 13 and 14 measured on day 1 (reference value: 156.87 +/- 22.32 mm3). Format: functional.
Data set [17] can be described thus: Antitumor activity against human Bel7404 cells xenografted in BALB/c nude mouse assessed as tumor volume at 50 mg/kg, ig administered via oral gavage once daily for 14 consecutive days measured on day 3 (reference value: 176.17 +/- 57.63 mm3). It counts as functional, BEL-7404.
Data set [18] can be described thus: Antitumor activity against human Bel7404 cells xenografted in BALB/c nude mouse assessed as tumor volume at 50 mg/kg, ig administered via oral gavage once daily for 14 consecutive days measured on day 14 (reference value: 589.54 +/- 162.22 mm3). Format: functional, BEL-7404.
Data set [19] can be described thus: Antitumor activity against human Bel7404 cells xenografted in BALB/c nude mouse assessed as tumor volume at 50 mg/kg, ig administered via oral gavage once daily for 14 consecutive days measured on day 7 (reference value: 284.68 +/- 74.36 mm3). It counts as functional, BEL-7404.
Data set [20] in a line: Antitumor activity against human Bel7404 cells xenografted in BALB/c nude mouse assessed as tumor volume at 50 mg/kg, ig administered via oral gavage once daily for 14 consecutive days measured on day 17 (reference value: 747.40 +/- 169.75 mm3). It counts as functional, BEL-7404.
A short description of data set [21]: Antitumor activity against human Bel7404 cells xenografted in BALB/c nude mouse assessed as tumor growth inhibition at 50 mg/kg, ig administered via oral gavage once daily for 14 consecutive days measured on day 29. The settings on record: BEL-7404, po, 696 h, read-out: TGI. Format: functional.
Data set [22] can be described thus: Antitumor activity against human Bel7404 cells xenografted in BALB/c nude mouse assessed as tumor volume at 50 mg/kg, ig administered via oral gavage once daily for 14 consecutive days measured on day 1 (reference value: 101.62 +/- 26.48 mm3). It counts as functional, BEL-7404.
A short description of data set [23]: Antitumor activity against human Bel7404 cells xenografted in BALB/c nude mouse assessed as tumor volume at 50 mg/kg, ig administered via oral gavage once daily for 14 consecutive days measured on day 10 (reference value: 425.92 +/- 102.32 mm3). Format: functional, BEL-7404.

The term solubility denotes how much of the substance goes into solution per volume. Read a high solubility as much dissolved substance. Broadly, the IC50 is the point on the concentration scale where inhibition reaches its midpoint. Read a low IC50 as inhibition by little substance. In the case of `COc1ncc(-c2ccc3nccc(-c4ccnnc4)c3c2)cc1NS(=O)(=O)c1ccc(F)cc1F` [OMIPALISIB], the Activity in data set [1] is listed as 520.69 mm3; in the data set with Mus musculus [2], 20.92 g; in the data set with Mus musculus [4], 21.63 g; in data set [5], 261.5 mm3; in [7], 968.24 mm3; in [8], 396.45 mm3. For the same compound, the Activity in the data set with Mus musculus [10] was determined as 24.55 g; in the data set with Mus musculus [11], 22.22 g; in the data set with Mus musculus [12] it was 24.7 g; in the data set on Mus musculus [13], 22.98 g; in data set [14] it was 669.43 mm3; in data set [16], 146.36 mm3. Also, the concentration in solution in [3] (solubility) came to 200 µg/mL (≈ 396 µM). The 50% inhibitory concentration (IC50) in data set [6] turned out to be 537 nM; in data set [9], 140 nM; in the data set “cells”, 154 nM. In addition, the inhibition in vivo at 3 mg/kg in data set [15] was 65.9%.

For `CNC(=O)c1cc(Oc2ccc(NC(=O)Nc3ccc(Cl)c(C(F)(F)F)c3)cc2)ccn1` [SORAFENIB], the Activity was found to be 136.23 mm3 in data set [17]; 334.93 mm3 in data set [18]; 206.94 mm3 in [19]; 413.79 mm3 in data set [20]; 97.11 mm3 in data set [22]; 257.88 mm3 in data set [23]. Moreover, the inhibition in vivo at 50 mg/kg in data set [21] was 43.8%.
